Measured values taken from patent US12690590B2, “Phenyl compound and plant disease control method” (SUMITOMO CHEMICAL COMPANY, LIMITED, priority 2020, dated 2026).

Key:
[1] = test system: Phytophthora infestans; format: in vivo; conditions: 200 ppm foliar spray, tomatoes (Patio), inoculated 1 day after spraying
[2] = test system: Microsphaera diffusa; assay: Test Example 10: test for controlling soybean powdery mildew, foliar spray after inoculation; format: in vivo; conditions: 200 ppm foliar spray 2 days after inoculation, soybeans (Kurosengoku)

Compound	lesion area in the treated tomatoes relative to the lesion area in the non-treated tomatoes [1] [%]	lesion area in the treated soybeans relative to the lesion area in the non-treated soybeans [2] [%]
CCCS(=O)(=O)c1nc(-c2ccc(C(C)(C)C)cc2)cs1 [IIC-16]	≤ 30	–
CCCCCSc1ccn(-c2ccc(Cl)cc2)n1 [IIA-53]	–	≤ 30
